Source: patent US20050026847A1, “Methods for treating, preventing, or inhibiting injuries, cell membrane stabilization, and calcium mobilization using pseudopterosin compounds” (priority 2003, published 2005)

What was measured:
[1] = Cell-free hydrogen peroxide scavenging (direct antioxidant) assay; details: 50 μM
Experimental: A mixture of hydrogen peroxide and water without cells was mixed with the DCFH-DA dye and 82U of esterase as described above. To this mixture the drugs were added and results monitored on the fluorimeter.

T. thermophila = test: Phagocytosis activity assay (India ink phagosome formation); assay type: cell-based, Tetrahymena thermophila; details: for effect on rate of phagosome formation / phagocytic activity: 10 minutes drug/ink exposure, FIGS. 2-4; for effect of Pertussis toxin pretreatment on the compound's effect on phagocytosis: Pertussis toxin pretreatment (5 minutes), FIGS. 5-6
Experimental: Log-phase T. thermophila cultures were grown in 2% protease peptone, at 25° C. The cells were washed and resuspended in 10 mM HEPES, pH 7.4 (250,000 cells/ml). Test compounds were mixed with diluted India ink (1:25, v:v) in order to visualize the newly formed phagosomes. At t=0, the drug/ink mixture was added to the Tetrahymena cells, and at t=10 minutes, […] samples of cell suspension were removed and fixed in 10% formaldehyde. At least about 100 random cells from each sample were then examined using a light microscope. Phagocytic activity was assessed by calculating the ratio of cells with food vacuoles compared to the cells with no food vacuoles.

Symbiodinium spp. cells = test: Injury response assay, chemical injury (mastoparan) in Symbiodinium; assay type: cell-based; details: 10 μM, FIG. 14
Experimental: (§1) To determine the protective effect of pseudopterosin compounds against chemical injury, mastoparan was administered to test cells and released reactive oxygen species calibrated to H2O2 was measured as an indicator of injury.
(§2) Symbiodinium spp. cells were isolated, prepared and identified as described in Example 3. Heterocapsa pygmaea was grown in culture in F-1 media without silica. The cells were harvested in log growth phase and diluted to about 5×10^5 cells/ml using a hemocytometer. […] The oxidative burst was prevented or inhibited by about 71% by incubating the H. pygmaea cells with a mixture comprising 25 μM of pseudopterosin compounds for 1 hour prior to exposure to mastoparan.
(§3) H2O2 concentration was calculated from a standard curve from DCFH-DA fluorescence (0.05 mM, redox sensitive probe, requires esterase (82 U) for detection of H2O2). Fluorescence was measured using a Perkin Elmer LS50B Fluorimeter, excitation 488 nm and emission 525 nm.

H. pygmaea cells = test: Injury response assay, chemical injury (mastoparan-induced oxidative burst); assay type: cell-based, Heterocapsa pygmaea; details: 10 μM, FIG. 14
Experimental: as §1, §2, §3

Tetrahymena cells = test: Ca++ signaling assay (Calcium Orange fluorescence, intracellular calcium release); assay type: cell-based, Tetrahymena thermophila; details: for effect of Pertussis toxin pretreatment on the compound's calcium release activity: 0.5 μg/ml Pertussis toxin for 5 minutes prior to treatment
Experimental: Cell density was adjusted to 500,000 cells/ml using a 10 mM HEPES and 2.5 mM Probenecid buffer (pH 7.4) (Sigma, St. Louis, Mo.). The cells were loaded with 3 μM Calcium Orange AM ester (Molecular Probes, Eugene, Oreg.) for 90 minutes in the dark. The cells were washed, resuspended in buffer, and incubated for 1 hour to allow de-esterification of the fluorescent probe. The cells were washed twice and placed in a 2 ml quartz cuvet. Calcium release was measured by an LS50B Perkin Elmer Fluorimeter (Ex=549, Em=576) (Perkin Elmer, Wellesley, Mass.) for a 20 minute period. The cells were exposed to the test compounds for 20 minutes and then the fluorescence was recorded. In some experiments, the cells were pretreated with 0.5 μg/ml Pertussis toxin for 5 minutes. FIGS. 7A-7C show Tetrahymena cells loaded with Calcium Orange under fluorescence microscopy (X400). Upon calcium binding to calcium orange, the intensity increases thereby indicating the release of intracellular calcium. FIG. 7A is a control.

[2] = test system: Heterocapsa pygmaea cells; test: Injury response assay, physical injury (ultrasound-induced oxidative burst, H2O2 by DCFH-DA); assay type: cell-based; details: FIG. 16, read-out: inhibition of oxidative burst in injured cells
Experimental: The released reactive oxygen species were calibrated to H2O2, the least labile of the group. […] Specifically, by homogenization in a blender with 0.22 μm filtered seawater and 10 mM EDTA, and filtered through 4 layers of cheesecloth. Algal symbionts were pelleted out by centrifugation at 250×g and subsequently washed 10 times with 40 ml clean filtered seawater and pelleted by centrifugation at 750×g. The cells were further purified on Percoll® (Sigma, St. […] DNA staining using DAPI detected on epifluorescence microscopy was used to detect contaminants due to bacterial or coral cells. Cells isolated from live coral were diluted to a final concentration of about 5×10^5 cells/ml using a hemocytometer and maintained in filtered seawater. Heterocapsa pygmaea is grown in culture in F-1 media without silica. The cells were harvested in log growth phase and diluted to about 5×10^5 cells/ml using a hemocytometer. […] H2O2 concentration was calculated from a standard curve from DCFH-DA fluorescence (0.05 mM, redox sensitive probe, requires esterase (82 U) for detection of H2O2). Fluoresence was measured using a Perkin Elmer LS50B Fluorimeter, excitation 488 nm and emission 525 nm.

O=C1O[C@H]([C@@H](O)CO)C(O)=C1O [ascorbic acid]
immediate reduction of the fluorescent signal in cell free system [1]: about 60%

[Ca+2].[Cl-].[Cl-] [CaCl2]
effect on rate of phagosome formation / phagocytic activity (T. thermophila): increases the rate of phagocytic activity

mastoparan
effect of mastoparan on Symbiodinium spp. cells (Symbiodinium spp. cells): no effect
effect of mastoparan on oxidative burst in H. pygmaea (H. pygmaea cells): cause a large oxidative burst
effect of Pertussis toxin pretreatment on the compound's calcium release activity (Tetrahymena cells): inhibits the effects of mastoparan

CC(C)=C[C@H]1C[C@H](C)[C@H]2CC[C@H](C)c3c(O[C@@H]4OC[C@@H](O)[C@H](O)[C@H]4O)c(O)c(C)c1c32 [PsA, Pseudopterosin A]
effect on rate of phagosome formation / phagocytic activity (T. thermophila): decreases the rate of phagosome formation in a dose dependent manner
effect of Pertussis toxin pretreatment on the compound's effect on phagocytosis (T. thermophila): completely blocks the effect of PsA on phagocytosis
effect of Pertussis toxin pretreatment on the compound's calcium release activity (Tetrahymena cells): Pertussis toxin blocks PsA activity
effect of mastoparan on PsA activity (Tetrahymena cells; FIG. 10A): Mastoparan does not inhibit PsA
effect of Verapamil or Gd3+ on the effects of PsA (intracellular calcium release and phagosome formation) (Tetrahymena cells; T. thermophila): not inhibited by Verapamil or Gd^3+
effect of suramin pretreatment on PsA activity (Tetrahymena cells; suramin pretreatment (5 minutes), FIG. 10B): blocks PsA activity

COc1ccc2c(c1)CC[C@@H]1[C@@H]2CC[C@]2(C)[C@@H](NCCCCCCN3C(=O)C=CC3=O)CC[C@@H]12 [Pseudopterosin U73122]
effect of Pertussis toxin pretreatment on the compound's effect on phagocytosis (T. thermophila): not blocked by Pertussis toxin pretreatment
effect of Pertussis toxin pretreatment on the compound's calcium release activity (Tetrahymena cells): Pertussis toxin does not inhibit U73122 activity

c1ccc2c(c1)[I+]c1ccccc1-2 [DPI, Diphenylene iodonium chloride]
inhibition at 50 µM [2]: ~96%
